Results published in patent US20140322242A1, “MATERIALS AND METHODS FOR THE PREVENTION AND TREATMENT OF CANCER” (Icahn School of Medicine at Mount Sinai, priority 2010, published 2014).

Experiments:
PC-3luc cells [1] = assay: Xenogeneic orthotopic PC-3luc prostate tumor model in nude mice (bioluminescence, immunofluorescence); assay type: in vivo, Balb/c nu/nu mice; settings: for distant metastases / carbachol-induced lymph node invasion: antagonist in combination with carbachol
Experimental: The microenvironment of a developing tumor is important in cancer development and metastasis. A xenogeneic orthotopic model of prostate cancer was established to provide a minimally disruptive microenvironment for this cancer in live mice.
In vivo and ex vivo bioluminescence imaging was performed and analyzed using an IVIS imaging system 200 series (Xenogen, Caliper Life Sciences, Hopkinton, Mass.). Bioluminescent signal was induced by i.p. injection of D-luciferin (150 mg/kg in PBS) 8 minutes prior to in vivo imaging. For ex vivo imaging, D-luciferin (300 mg/kg) was injected 7 minutes prior to necropsy. Organs of interest were immersed in a solution of D-luciferin at 150 mg/ml.
(§1) Upon sacrifice, mouse prostate tissues were immersed in OCT medium (Tissue Teck®). Five-micrometer frozen sections were stained with hematoxylin-eosin (H&E). For immunofluorescence, unstained prostate sections were fixed with acetone or methanol. For staining of nerves, fixed sections were incubated in H2O2 to quench endogenous peroxidase and non-specific binding was blocked with goat serum in bovine serum albumin (BSA) solution and the avidin/biotin blocking kit (Vector Laboratories, Burlingame, Calif.). Sections were incubated with a rabbit anti-TH antibody (Millipore, Billerica, Mass.), or anti-VAChT antibody (Phoenix Pharmaceuticals, Inc., Burlingame, Calif.), or anti-NF-L antibody (Millipore), or anti-NF-H antibody (Abcam, Cambridge, Mass.) and then with a secondary biotinylated goat anti-rabbit antibody (Vector Laboratories). Signal was amplified using the Vectastain Elite ABC Kit (Vector Laboratories) and visualized using the Tyramide Signal Amplification kit for TRITC (PerkinElmer, Boston, Mass.).
(§2) For proliferative cell quantification, sections were incubated with a rabbit polyclonal anti-Ki67 (Abcam) and then Alexafluor 568-conjugated goat anti-rabbit antibody (Molecular Probes, Carlsbad, Calif.).
(§3) Human tumors were induced by orthotopic surgical implantations of 1×10^5 PC-3luc cells into six- to eight-week-old Balb/c nu/nu mice. Ten days after cell injection (day 0), the animals were randomized into the different groups and received the appropriate drugs, as indicated. 6OHDA or vehicle was injected at day 0 (100 mg/kg) and day 2 (250 mg/kg), and human recombinant G-CSF treatment was begun on day 4 (Amgen, 250 μg/kg/day, every 12 hours, 8 divided doses, i.p., in 5% dextrose). A second cycle was administered eight weeks after graft and animals were sacrificed three weeks after the last injection of G-CSF (i.e., 11 weeks after graft). In other experiments, 2×10^5 PC-3luc cells were orthotopically injected into nu/nu Adrβ2^tm1Bkk/J+/+ Adrβ3^tm1Lowl/J+/+, nu/nu Adrβ2^tm1Bkk/J−/−, nu/nu Adrβ3^tm1Lowl/J−/− and nu/nu Adrβ2^tm1Bkk/J−/− Adrβ3^tm1Lowl/J−/−. In selected experiments, 2×10^6 LNCaP-luc cells were injected in nu/nu Adrβ2^tm1Bkk/J+/+ Adrβ3^tm1Lowl/J+/+ and nu/nu Adrβ2^tm1Bkk/J−/− Adrβ3^tm1Lowl/J−/− mice. For the transgenic model, one-, two- or five-month-old c-Myc mice were injected with 6OHDA or surgically sympathectomized according to protocols described above and sacrificed 30 days later.
A second cycle was administered at week four and mice were sacrificed one week later (five weeks after graft). For cholinergic experiments using the nu/nu Chrm1^tm1Stl+/+ and nu/nu Chrm1^tm1Stl−/− animals, mice were sacrificed at week six post-graft. For the survival study, grafted mice were treated as described hereinabove from week 4, every two weeks for up to 25 weeks or until death. Disease progression was monitored by bioluminescence scanner. […] One week later, mice received a second round of treatment and were then sacrificed at month four.

[2] = Echocardiography cardiac function after carbachol; assay type: in vivo; settings: carbachol four consecutive days; n = 4 mice
Experimental: For imaging, animals were anesthetized with a mixture of O2/1.5% isoflurane and then positioned ventral side up on the platform of the imaging system. ECG signal and respiratory rate were captured through the electrode pads on the advanced physiological monitoring unit and transmitted to the Vevo system for monitoring. Cardiac examinations were performed in two dimensional images using the parasternal long axis (PLAX) view in B-Mode with a 1MS550D 40 MHz probe. Two cineloops (300 frames/cineloop) were recorded per animal and then analyzed on two diastoles and two systoles per animal. The endocardial stroke volume and endocardial diastolic volume were determined to calculate the ejection fraction.

[3] = Intravital microscopy hemodynamic measurements after carbachol; assay type: in vivo, mice
Experimental: Centerline red blood cell velocities were measured for 10 venules and 10 arterioles in two independent experiments. Wall shear rates (γ) were calculated based on Poiseuille's law for a Newtonian fluid, γ=2.12 (8Vmean)/Dv or Da, where Dv and Da are the venular or arterial diameters, the mean blood flow velocity (Vmean) was estimated as VRBC/1.6, and 2.12 is a median empirical mean, correction factor obtained from actual velocity profiles measured in microvessels in vivo. The blood flow rate was calculated from the formula: Vmean π D^2/4.

PC-3luc cells [4] = assay: PC-3luc cell proliferation / cytotoxicity in vitro (MTT); assay type: cell-based, human
Experimental: A cell proliferation assay was performed on human PC-3 prostate tumor cells after 96 hours of treatment by G-CSF at three different concentrations by comparison with human leukemic cells (HL-60 and U937). Cell proliferation was quantified by a cell viability assay using MTT (3-[4,5-dimethylthiazole-2-yl]-2,5-diphenyltetrazolium bromide (Sigma). The percentage of viable cells was calculated by comparing the optical density (OD) of the treated samples with those incubated with vehicle. Methods were carried out as described by Magnon, et al., Cancer Res, 65, 4353-61 (2005); incorporated herein by reference in its entirety.

[5] = system: prostate cancer in cMyc mice; assay: cMyc transgenic mouse model of prostate cancer (mPIN, invasive cancer zones); assay type: in vivo
Experimental: To investigate further the activity of G-CSF on tumor development using a genetic mouse model, transgenic mice expressing human cMyc under the ARR2/probasin promoter expressed specifically in the prostate (hereafter cMyc mice) were evaluated. This transgenic model leads to the complete penetrance of mouse prostatic intraepithelial neoplasia (mPIN) from postnatal week 2, progressing to invasive adenocarcinomas between 3 to 6 months of age (FIG. 2m). […] The development of invasive cancer was associated with a broad infiltration of NF-L+ neo-fibers by comparison with control animals (FIG. 2o). Thus, the increased tumor/normal epithelial cell proliferation following G-CSF administration is associated with (i.e., is correlated to) the development of new nerve fibers in the primary tumor. Accordingly, a method of treating cancer in a subject such as a human patient or non-human animal (e.g., non-human mammal) comprises administering a prophylactically or therapeutically effective amount of an inhibitor of NF-L+ neo-fibers. In some embodiments, the method comprises administering a prophylactically or therapeutically effective amount of an inhibitor of G-CSF.
as §3
To ascertain the role of sympathetic innervation in tumor initiation using a genetic model, the effect of chemical or surgical sympathectomy on prostate cancer in cMyc mice was evaluated. For this study, transgenic cMyc mice expressing human c-Myc under the ARR2/probasin promoter expressed specifically in the prostate (AAR2/Pbsn-MYC) were used. This transgenic model leads to the complete penetrance of mouse prostatic intraepithelial neoplasia (mPIN) from postnatal week 2, progressing to invasive adenocarcinomas between 3 to 6 months of age (FIG. 6e). To this end, mice were chemically sympathectomized one month prior to histological analyses.
Disease progression was monitored by bioluminescence scanner. […] Mice were sacrificed at week 10.

healthy prostate = assay: Healthy (tumor-free) prostate: nerve density, epithelial cell proliferation, apoptosis, Chrm1 expression; assay type: in vivo, mouse; settings: 6OHDA; TUNEL
Experimental: as §1, §2
For apoptotic cell quantification, prostate sections were fixed with 4% paraformaldehyde (PFA) and stained with the Mebstain Apoptosis Kit according to manufacturer's recommendations (MBL International, Woburn, Mass.). Basement membranes were stained with a rat polyclonal anti-α2laminin antibody (Abcam) followed by Alexafluor647-conjugated goat anti-rat antibody (Molecular Probes).
Gene expression levels were analyzed from RNA extracted, using the TRIzol solution (Invitrogen, Carlsbad, Calif.), from PC-3, DU145, LNCaP cell lines or prostates from Balb/c nu/nu mice by quantitative real-time PCR, as described previously (Mendez-Ferrer, Nature, 452:442-447 (2008)).

[6] = one hour after carbachol injection, n = 10 vessels

Question: For `CN1[C@@H]2C[C@@H](OC(=O)[C@H](CO)c3ccccc3)C[C@H]1[C@@H]1O[C@@H]12` [scopolamine], which distant metastases (PC-3luc cells [1]) is on record?
Answer: inhibited

Question: And the “carbachol-induced lymph node invasion” value (PC-3luc cells [1]; week 5)?
Answer: inhibited

Question: With `C[N+](C)(C)CCOC(N)=O.[Cl-]` [carbachol, carbamoylcholine chloride] as the molecule, how does the Ejection fraction [2] read?
Answer: 65 ± 4%

Question: What about the “Endocardial volume, diastole” value [2] of the same molecule?
Answer: 34.4 ± 7.9 µL

Question: What about the “Endocardial volume, systole” value [2] of the same molecule?
Answer: 11.7 ± 3.0 µL

Question: And the vascular hemodynamics ([3]; carbachol-treated mice)?
Answer: not altered

Question: And the “Arterioles Blood Flow rate” value [3, 6]?
Answer: 1737 ± 148 nL/s

Question: What about the “Arterioles Diameter” value [3, 6] of the same molecule?
Answer: 38.1 ±0.8 μm

Question: What about the “Arterioles RBC velocity” value [3, 6] of the same molecule?
Answer: 2.47 ± 0.22 mm/sec

Question: What about the “Arterioles Wall shear rate (g)” value [3, 6] of the same molecule?
Answer: 698 ± 69

Question: What about the “Venules Blood Flow rate” value [3, 6] of the same molecule?
Answer: 863 ± 128 nL/s

Question: What about the “Venules Diameter” value [3, 6] of the same molecule?
Answer: 33.7 ± 1.3 μm

Question: What about the “Venules RBC velocity” value [3, 6] of the same molecule?
Answer: 1.48 ± 0.19 mm/sec

Question: And the “Venules Wall shear rate (g)” value [3, 6]?
Answer: 469 ± 59

Question: What about the “proliferation of PC-3luc cells in vitro” value (PC-3luc cells [4]; carbachol) of the same molecule?
Answer: did not induce any proliferation

Question: And the “incidence of mPIN” value ([5]; carbachol into three-month-old mice)?
Answer: significantly increased

Question: And the “transition of neoplastic lesions to invasive carcinoma” value ([5]; carbachol, four months of age)?
Answer: accelerated

Question: And the “invasion of inguinal lymph nodes” value (PC-3luc cells [1]; carbachol alone, week 5)?
Answer: significantly enhanced

Question: And the “proliferation of PC-3luc cells orthotopically implanted into the prostate (Ki67)” value (PC-3luc cells [1]; carbachol injections)?
Answer: induced the proliferation

Question: What about the “tumor cell dissemination to distant organs compared to the control group” value (PC-3luc cells [1]; carbachol, ex vivo bioluminescence) of the same molecule?
Answer: about 6 fold

Question: What about the “primary tumors (ex vivo bioluminescence)” value (PC-3luc cells [1]; carbachol, five weeks post-grafting) of the same molecule?
Answer: depopulated

Question: Which results are given for `NCCc1cc(O)c(O)cc1O` [6OHDA, 6-hydroxydopamine]?
Answer: apoptosis of epithelial cells in the healthy prostate (healthy prostate): triggered in vivo apoptosis; direct cytotoxicity on tumor cells in vitro (PC-3luc cells [4]; 6OHDA, cultured PC-3luc cells): no direct cytotoxicity; percentage of mPIN ([5]; denervation at 1 month of age): significantly reduced; prevalence of mPIN and invasive cancer zones ([5]; sympathectomy two months or more after birth): not significantly altered; TH+ neural fibers expressing NF-L (basal neural layer underneath prostate epithelium) (PC-3luc cells [1]; 6OHDA 100 and 250 mg/kg): specifically destroyed; NF-L and NF-H positive fibers (parasympathetic) surrounding epithelial cells (PC-3luc cells [1]; 6OHDA treatment): without affecting; metastases (PC-3luc cells [1]; 6OHDA-induced sympathectomy): did not yield any detectable metastases; development of the primary tumors (PC-3luc cells [1]; 6OHDA-induced sympathectomy, bioluminescence, TUNEL): dramatically prevented

Question: Which carbachol-induced malignancy progression ([5]; pirenzepine with carbachol) does the source give for `CN1CCN(CC(=O)N2c3ccccc3C(=O)Nc3cccnc32)CC1` [pirenzepine] here?
Answer: completely inhibited

Question: And the distant metastases (PC-3luc cells [1])?
Answer: inhibited

Question: And the “carbachol-induced lymph node invasion” value (PC-3luc cells [1]; week 5)?
Answer: inhibited

Question: What about the “carbachol-induced tumor cell proliferation (Ki67)” value (PC-3luc cells [1]; pirenzepine with carbachol) of the same molecule?
Answer: specifically blocked
